Test [1] has as its system A2058. As to the kind of experiment: BrdU cell proliferation assay. The test is classed as cell-based, human. How it is done:
(§1) The BrdU Cell Proliferation Assay is based on the detection of BrdU (5-bromo-2′-deoxyuridine) incorporated into the newly synthesized DNA during the replication process in proliferating cells.
(§2) The A2058 (5 × 10^3/well) and BLM (5 × 10^3/well) melanoma cells were plated in a 96-well culture plate in 80 μL suitable medium. Twenty-four hours after cell seeding, different concentrations of the chalcone 1C were added ranging from 5–20 μmol/L. After 48 h of treatment, BrdU labelling solution was added to melanoma cells and incubated for another 24 h at 37 °C followed by fixation and incubation with anti-BrdU peroxidase conjugate solution for an additional 90 min in the dark at room temperature. Cells were then washed 3× with washing solution and incubated with TMB (tetramethylbenzidine) substrate solution (all Roche, Basel, Switzerland) for 5 to 30 min according to colour intensity. Finally, the stop solution (25 μL 1 M H2SO4) was added, and the incorporated BrdU was detected with an automated Cytation™ 3 Cell Imaging Multi-Mode Reader (Biotek, Winooski, VT, USA) at 450 nm. Three independent analyses were performed.

Test [2] concerns BLM. As to the kind of experiment: BrdU cell proliferation assay. The test is classed as cell-based, human. How it is done:
as §1, §2

The subject of test [3] is A2058 melanoma cells. Nature of the test: Flow cytometric analysis of DNA damage (ATM, SMC1, H2A.X phosphorylation). The format is cell-based, human. How it is done:
(§3) The A2058 and BLM melanoma cells were seeded 1 × 10^6 in Petri dishes with complete growth medium and cultivated for 24 h. After cell cultivation, the A2058 cells were treated with chalcone 1C at 10 μmol/L concentration, BLM cells at 20 μmol/L concentration and both melanoma cell lines were treated with DMSO as the negative control at the same concentrations for 24, 48 and 72 h. Adherent and floating cells were harvested, pelleted by centrifugation at 1200 rpm for 5 min. Pellets were resuspended in washing buffer (PBS) and divided for a particular analysis. Afterwards, cells were prepared according to assay kit protocols or fixed with cold 4% paraformaldehyde (15 min) and permeabilized with 90% methanol (10 min on ice) with washing steps (PBS) and stained prior to analysis (Table 5) for 15 min in the dark at room temperature. Fluorescence was detected using a BD FACSCalibur^TM Flow Cytometer (Becton Dickinson, San Jose, CA, USA).
(Flow cytometry measures light scatter and fluorescence of single cells or particles in a stream.)

In test [4] the test system is MCF-10A. Nature of the test: MTT assay (metabolic activity). The test is classed as cell-based. To be noted: Homo sapiens; MCF-10A noncancer cell line, 72 h incubation. As for the experimental part:
(§4) Cell lines A2058 (human melanoma lymph node metastasis, cat. 91100402) from ECACC (Public Health England, Salisbury, UK) and BLM (human melanoma lung metastasis a gift from prof. K. Smetana, Institute of Anatomy, Charles University in Prague) were cultured in a medium consisting of high glucose Dulbecco’s Modified Eagle’s Medium (DMEM) and sodium pyruvate (GE Healthcare, Piscataway, NJ, USA). The growth medium was supplemented with a 10% fetal bovine serum (FBS) and antibiotic/antimycotic solution 1 × HyClone™ (GE Healthcare, Chicago, IL, USA). The MCF-10A (human mammary epithelial cells) cell line was cultured in a medium consisting of high glucose Dulbecco’s Modified Eagle’s Medium F12 (DMEM/F12) (Biosera, Kansas City, MO, USA). The growth medium was supplemented with a 10% FBS, antibiotic/antimycotic solution 1 × HyClone™ (GE Healthcare, Chicago, IL, USA), epidermal growth factor (EGF) (20 ng/mL final), hydrocortisone (0.5 μg/mL final) and insulin (10 μg/mL final) (Sigma-Aldrich Chemie, Steinheim, Germany). Cells were cultured in humidified air at 37 °C with atmosphere containing 5% CO2.
(§5) The half-maximal inhibitory concentration values (IC50) and metabolism inhibition of tested synthetic chalcone derivatives were determined by MTT (3-(4,5-di-methylthiazol-2-yl)2,5-diphenyltetrazolium bromide) colorimetric assay (Sigma-Aldrich Chemie, Steinheim, Germany). Tested cell lines were seeded at a density of 5 × 10^3 cells/well in 96-well culture plates. After 24 h, the tested chalcones in concentrations of 100, 50 and 10 μmol/L were added and incubation proceeded for the next 72 h. In the next step, 10 μL of MTT (5 mg/mL) was added to each well containing cells and incubated for another 4 h at 37 °C during which MTT was metabolized to insoluble formazan in cells. After 4 h, 100 μL of a 10% sodium dodecyl sulphate (SDS) was added to each well and another 24 h were allowed for the formazan crystals to dissolve. The metabolic activity of cells was evaluated by measuring the absorbance at wavelength 540 nm using the automated Cytation™ 3 Cell Imaging Multi-Mode Reader (Biotek, Winooski, VT, USA). Three independent analyses were performed.

Test [5] relates to A2058 melanoma cells. As to the kind of experiment: Flow cytometric analysis of cytochrome c release. To be noted: A2058, 1C 10 μmol/L, 24, 48 and 72 h. The format is cell-based, human. As for the experimental part:
as §3

Test [6] deals with BLM melanoma cells. As to the kind of experiment: Flow cytometric analysis of cytochrome c release. The test is classed as cell-based, human. To be noted: 1C 20 μmol/L, 24, 48 and 72 h. How it is done: as §3
The subject of test [7] is A2058 melanoma cells. Nature of the test: Flow cytometric analysis of caspase-3/7 activity. The format is cell-based, human. The note with it: A2058, 1C 10 μmol/L, 24, 48 and 72 h. How it is done:
as §3

Test [8] relates to BLM melanoma cells. As to the kind of experiment: Flow cytometric analysis of caspase-3/7 activity. The note with it: 1C 20 μmol/L, 24, 48 and 72 h. The format is cell-based, human. How it is done:
as §3

Test [9] deals with MCF-10A. As to the kind of experiment: BrdU cell proliferation assay. To be noted: Homo sapiens; MCF-10A noncancer cell line. The test is classed as cell-based.
Test [10] relates to A2058. Nature of the test: MTT assay (metabolic activity). The test is classed as cell-based, human. How it is done:
as §4, §5
(Tetrazolium dyes change colour on reduction, which living cells bring about.)

Test [11] deals with BLM. Nature of the test: MTT assay (metabolic activity). The format is cell-based, human. How it is done:
as §4, §5

Test [12] deals with A2058 melanoma cells. Nature of the test: AO/PI viability assay (fluorescence microscopy). The test is classed as cell-based, human. To be noted: A2058, 1C 10 μmol/L, 24, 48 and 72 h. As for the experimental part:
(§6) The A2058 and BLM melanoma cells were seeded at a density of 5 × 10^4/well into 6-well culture plates. Twenty-four hours after seeding, A2058 cells were treated with chalcone 1C at 10 μmol/L concentration, BLM cells at 20 μmol/L concentration and both melanoma cell lines were treated with vehicle (DMSO) at the same concentrations. At 24, 48 and 72 h after treatment, the culture medium was removed, the cells were washed with washing buffer (PBS) and fixed with 4% paraformaldehyde (pH 7.2) for 30 min. In the next step, the paraformaldehyde was removed, the cells were washed with PBS and the staining solution (10 μg/mL acridine orange and 10 μg/mL propidium iodide, Sigma-Aldrich) was added to each well for 1 h incubation at room temperature in the dark. Finally, the staining solution was removed, the cells were washed with PBS and apoptosis was observed using an automated Cytation™ 3 Cell Imaging Multi-Mode Reader (Biotek, Winooski, VT, USA).

The test system of test [13] is BLM melanoma cells. As to the kind of experiment: AO/PI viability assay (fluorescence microscopy). The format is cell-based, human. To be noted: 1C 20 μmol/L, 24, 48 and 72 h. How it is done:
as §6

Where [14] appears, read: Homo sapiens, A2058, 72 h incubation.
[15] abbreviates: Homo sapiens, BLM, 72 h incubation.
The mark [16] stands for this setting: A2058, 1C 10 μmol/L, 24, 48 and 72 h.

The structures appear in SMILES notation.

These results are taken from article PMC9603750, “Chalcone-Acridine Hybrid Suppresses Melanoma Cell Progression via G2/M Cell Cycle Arrest, DNA Damage, Apoptosis, and Modulation of MAP Kinases Activity” (International Journal of Molecular Sciences, 2022).

The term IC50 denotes the concentration that gives 50% inhibition. Read a low IC50 as greater potency. As to `COc1cccc(OC)c1C(=O)/C=C/c1c2ccccc2nc2ccccc12` [Compound 1C, (2E)-3-(acridin-9-yl)-1-(2,6-dimethoxyphenyl)prop-2-en-1-one], the IC50 in the test on A2058 [1] (setting [14]) was 8.4 ± 0.05 µM; in the test with BLM [2] (setting [15]) it was 16.51 ± 0.01 µM; with MCF-10A [4] it was 36.5 ± 0.87 µM; with MCF-10A [9], 32.9 ± 1.56 µM; in the test with A2058 [10] (setting [14]), 7.96 ± 0.38 µM; with BLM [11] (setting [15]) it was 17.9 ± 0.87 µM. For the same compound, the “Selectivity index, A2058 (BrdU)” value in the test on A2058 [1] (MCF-10A vs A2058, calculated on the basis of BrdU results) is given as 3.9. Further, the “Selectivity index, BLM (BrdU)” value in the test with BLM [2] (MCF-10A vs BLM, calculated on the basis of BrdU results) is 1.99. Besides, the “Phosphorylation of H2A.X” value in the test on A2058 melanoma cells [3] (setting [16]) was “significantly induced”. The “Phosphorylation of SMC1” value in the test with A2058 melanoma cells [3] (setting [16]) is “significant phosphorylation”. In the test with A2058 melanoma cells [3] (A2058, 1C 10 μmol/L, time-dependent (24, 48 and 72 h)), the “Phosphorylation of ATM” value is given as “significantly induced”. In addition, the Cytochrome c release entry with A2058 melanoma cells [5] and in the test on BLM melanoma cells [6] was “significant release of cytochrome c” each time. Besides, the “Caspase-3/7 activity in apoptotic cells” value in the test on A2058 melanoma cells [7] and with BLM melanoma cells [8] was “significant activity” in each case. In the test on A2058 [10] (MCF-10A vs A2058, calculated on the basis of MTT results), the “Selectivity index, A2058 (MTT)” value is 4.6. For the same compound, in the test with BLM [11] (MCF-10A vs BLM, calculated on the basis of MTT results), the “Selectivity index, BLM (MTT)” value is 2.0. The “Proliferation and viability (AO/PI staining)” value in the test with A2058 melanoma cells [12] was “significant decrease in proliferation and viability”; in the test on BLM melanoma cells [13], “significant decrease in proliferation and viability”.
